Experimental data: US20120172340A1, “Compositions and Methods for Selectively Activating Human Sirtuins” (BIOMOL International L.P., priority 2004, published 2012)
Entries after “also recorded” stand apart in the source; their conditions may differ.

How the values were obtained:
human SIRT1 = target: T1, human SIRT1 (Homo sapiens, UniProt Q96EB6); experiment: SIRT1 rate measurement, fluorogenic p53-382 peptide deacetylation; assay type: biochemical; conditions: 100 μM test compounds; 25 μM NAD+, 25 μM p53-382 peptide
T1 construct: made in house; host or cells: E. coli
T1 sequence (Q96EB6 1-747): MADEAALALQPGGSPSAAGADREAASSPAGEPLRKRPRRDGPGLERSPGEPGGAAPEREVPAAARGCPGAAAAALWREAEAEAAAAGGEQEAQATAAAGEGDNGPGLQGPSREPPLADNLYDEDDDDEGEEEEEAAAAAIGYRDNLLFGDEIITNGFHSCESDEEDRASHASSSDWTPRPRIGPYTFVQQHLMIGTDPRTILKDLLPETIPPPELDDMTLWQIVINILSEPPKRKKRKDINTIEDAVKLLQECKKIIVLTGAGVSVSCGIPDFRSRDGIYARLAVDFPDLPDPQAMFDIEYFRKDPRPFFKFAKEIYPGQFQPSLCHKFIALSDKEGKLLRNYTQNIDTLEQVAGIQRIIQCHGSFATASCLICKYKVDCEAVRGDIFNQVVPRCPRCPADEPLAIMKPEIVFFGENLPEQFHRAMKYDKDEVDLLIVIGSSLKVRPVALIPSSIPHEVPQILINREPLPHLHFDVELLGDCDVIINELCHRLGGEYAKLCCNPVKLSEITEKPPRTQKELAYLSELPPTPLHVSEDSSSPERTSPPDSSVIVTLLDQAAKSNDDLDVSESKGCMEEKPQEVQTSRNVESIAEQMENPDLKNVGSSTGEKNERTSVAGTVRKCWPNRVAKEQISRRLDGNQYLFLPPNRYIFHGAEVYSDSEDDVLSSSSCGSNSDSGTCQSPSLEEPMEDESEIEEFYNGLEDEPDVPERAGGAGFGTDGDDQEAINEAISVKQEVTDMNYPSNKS

human SIRT5 = target: T2, human SIRT5 (Homo sapiens, UniProt Q9NXA8); experiment: SIRT5 rate measurement, fluorogenic p53-382 peptide deacetylation; assay type: biochemical; design: His6 (histidine tag, 2.5 kDa) (N); made in house; host or cells: E. coli; conditions: for relative activation of SIRT5 versus SIRT1 (in words): comparison of Table 2 SIRT5 and SIRT1 data
T2 sequence (Q9NXA8 37-310): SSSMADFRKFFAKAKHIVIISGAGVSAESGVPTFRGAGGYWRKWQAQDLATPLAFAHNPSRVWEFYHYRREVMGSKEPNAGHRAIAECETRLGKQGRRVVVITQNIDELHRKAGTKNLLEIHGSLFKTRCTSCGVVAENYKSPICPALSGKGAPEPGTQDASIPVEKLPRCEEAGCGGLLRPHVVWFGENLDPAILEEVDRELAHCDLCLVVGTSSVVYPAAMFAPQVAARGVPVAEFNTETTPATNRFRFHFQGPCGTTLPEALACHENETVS

[1] = 200 μM test compounds, 500 μM NAD+, 100 μM p53-382 peptide

Row | Structure (SMILES) | SIRT1 Ratio to Control Rates Mean ± SE Compounds at 100 μM (human SIRT1) | SIRT5 Ratio of Control Rates Mean ± SE Compounds at 200 μM (human SIRT5; [1]) | identified as human SIRT5 inhibitor (human SIRT5) | maximum stimulation observed for SIRT5, increase in activity (human SIRT5; [1]) | maximum stimulation observed for SIRT1, increase in activity (human SIRT1) | relative activation of SIRT5 versus SIRT1 (in words) (human SIRT5)
1 | CC(=O)Oc1cc(O)cc(/C=C/c2ccc(O)cc2)c1 [BML-227, 3,4′-Dihydroxy-5-acetoxy-trans-stilbene] | 2.69 ± 0.08 | 2.09 ± 0.25 | – | – | – | –
2 | O=c1c(O)c(-c2ccc(O)c(O)c2)oc2cc(O)ccc12 [Fisetin, 3,7,3′,4′-Tetrahydroxyflavone] | 6.58 ± 0.69 | 2.61 ± 0.19 | – | – | – | relatively less potent SIRT5 activation
3 | Oc1cccc(/C=C/c2ccccc2)c1 [3-Hydroxy-trans-stilbene] | 2.36 ± 0.07 | 0.79 ± 0.06 | SIRT5 inhibitors | – | – | –
4 | Oc1cc(O)cc(/C=C/c2ccc(O)c(O)c2)c1 [Piceatannol, 3,5,3′,4′-Tetrahydroxy-trans-stilbene] | 7.90 ± 0.50 | 3.23 ± 0.21 | – | – | – | relatively more potent at activating SIRT1 than SIRT5
5 | O=C(/C=C/c1ccc(O)c(O)c1)c1ccc(O)cc1O [Butein, 3,4,2′,4′-Tetrahydroxychalcone] | 8.53 ± 0.89 | 2.19 ± 0.10 | – | – | – | selective activators of SIRT1 as compared to SIRT5; also recorded: relatively less potent SIRT5 activation
6 | O=c1c(O)c(-c2ccc(O)c(O)c2)oc2cc(O)cc(O)c12 [Quercetin, 3,5,7,3′,4′-Pentahydroxyflavone] | 4.59 ± 0.47 | 2.18 ± 0.10 | – | – | – | relatively less potent SIRT5 activation
7 | COc1ccc(/C=C/c2ccccc2)cc1 [4-Methoxy-trans-stilbene] | 0.84 ± 0.09 | 0.79 ± 0.20 | SIRT5 inhibitors | – | – | –
8 | Oc1ccc(/C=C/c2ccccc2)cc1O [3,4-Dihydroxy-trans-stilbene] | 1.64 ± 0.10 | 0.58 ± 0.25 | SIRT5 inhibitors | – | – | –
9 | CC(=O)Oc1ccc(/C=C/c2cc(O)cc(O)c2)cc1 [BML-221, 3,5-Dihydroxy-4′-acetoxy-trans-stilbene] | 3.05 ± 0.54 | 2.89 ± 0.15 | – | – | – | –
10 | CC(Cc1ccc(O)c(O)c1)C(C)Cc1ccc(O)c(O)c1 (stereo not drawn) [NDGA, Nordihydroguaiaretic acid] | 1.738 ± 0.088 | 1.91 ± 0.02 | – | – | – | –
11 | Oc1cc(O)cc(/C=C/c2ccccc2)c1 [Pinosylvin, 3,5-Dihydroxy-trans-stilbene] | 9.95 ± 0.45 | 2.71 ± 0.092 | – | – | – | relatively more potent at activating SIRT1 than SIRT5
12 | Cc1ccc(NC(=O)c2cccc(N(C)C)c2)cc1NC(=O)c1ccc(O)cc1 [ZM 336372, N-[5-(3-dimethylaminobenzamido)-2-methylphenyl]-4-hydroxybenzamide] | 3.5 ± 1.1 | 0.74 ± 0.05 | SIRT5 inhibitors | – | – | selective activators of SIRT1 as compared to SIRT5

The next lines start with results.

Row | SIRT1 Ratio to Control Rates Mean ± SE Compounds at 100 μM (human SIRT1) | SIRT5 Ratio of Control Rates Mean ± SE Compounds at 200 μM (human SIRT5; [1]) | identified as human SIRT5 inhibitor (human SIRT5) | maximum stimulation observed for SIRT5, increase in activity (human SIRT5; [1]) | maximum stimulation observed for SIRT1, increase in activity (human SIRT1) | Structure (SMILES) | relative activation of SIRT5 versus SIRT1 (in words) (human SIRT5)
13 | 2.74 ± 0.37 | 4.50 ± 0.28 | – | – | – | COC(=O)c1ccc(/C=C/c2cc(O)cc(O)c2)cc1 [BML-237, 3,5-Dihydroxy-4′-carbomethoxy-trans-stilbene] | selective activators of SIRT5 as compared to SIRT1
14 | 6.01 ± 0.15 | 8.41 ± 0.22 | – | – | – | CC(C)c1ccc(/C=C/c2cc(O)cc(O)c2)cc1 [BML-231, 3,5-Dihydroxy-4′-isopropyl-trans-stilbene] | –
15 | 9.373 ± 0.014 | 8.41 ± 0.36 | – | – | – | CCc1ccc(/C=C/c2cc(O)cc(O)c2)cc1 [BML-225, 3,5-Dihydroxy-4′-ethyl-trans-stilbene] | –
16 | 1.36 ± 0.10 | 2.09 ± 0.25 | – | – | – | O=C(O)c1ccc(/C=C/c2cc(O)cc(O)c2)cc1 [BML-238, 3,5-Dihydroxy-4′-carboxy-trans-stilbene] | –
17 | – | 3.10 ± 0.016 | – | – | – | COc1cc(O)cc(/C=C/c2ccc(NC(C)=O)cc2)c1 [BML-223, 3-methoxy-5-hydroxy-4′-acetamido-trans-stilbene] | –
18 | 7.72 ± 0.12 | 8.12 ± 0.31 | – | – | – | Cc1ccc(/C=C/c2cc(O)cc(O)c2)cc1 [BML-228, 3,5-Dihydroxy-4′-methyl-trans-stilbene] | –
19 | 10.6 ± 0.4 | 13.6 ± 0.4 | – | 13.6 fold | – | Oc1cc(O)cc(/C=C/c2ccc(Cl)cc2)c1 [BML-217, 3,5-Dihydroxy-4′-chloro-trans-stilbene] | potent activator of SIRT5 and SIRT1
20 | 1.30 ± 0.04 | 1.40 ± 0.23 | – | – | – | Oc1cc(O)cc(/C=C/C2CCCCC2)c1 [BML-224, (E)-1-(3,5-Dihydroxyphenyl)-2-(cyclohexyl)ethene] | –
21 | 1.88 ± 0.11 | 2.26 ± 0.17 | – | – | – | CC(=O)Nc1ccc(/C=C/c2cc(O)cc(O)c2)cc1 [BML-222, 3,5-Dihydroxy-4′-acetamide-trans-stilbene] | –
22 | 6.78 ± 0.22 | 3.43 ± 0.10 | – | – | – | O=[N+]([O-])c1ccc(/C=C/c2cc(O)cc(O)c2)cc1 [BML-229, 3,5-Dihydroxy-4′-nitro-trans-stilbene] | –
23 | 3.05 ± 0.37 | 2.47 ± 0.22 | – | – | – | Oc1cc(O)cc(/C=C/c2ccc3ccccc3c2)c1 [BML-218, (E)-1-(3,5-Dihydroxyphenyl)-2-(2-napthyl)ethene] | –
24 | 6.84 ± 1.26 | 4.60 ± 0.17 | – | – | – | CSc1ccc(/C=C/c2cc(O)cc(O)c2)cc1 [BML-230, 3,5-Dihydroxy-4′-thiomethyl-trans-stilbene] | –
25 | 12.6 ± 0.4 | 2.12 ± 0.34 | – | – | 12.6 fold | CCSc1ccc(/C=C/c2cc(O)cc(O)c2)cc1 [BML-243, 3,5-Dihydroxy-4′-thioethyl-trans-stilbene] | selective activators of SIRT1 as compared to SIRT5; also recorded: relatively less potent SIRT5 activators
26 | 1.26 ± 0.12 | 2.49 ± 0.29 | – | – | – | Oc1cc(O)cc(/C=C/c2ccncc2)c1 [BML-236, (E)-1-(3,5-Dihydroxyphenyl)-2-(4-pyridyl)ethene] | –
